Measured values: patent US12083102B2, “Method for treating inflammatory disorders” (DIMERIX BIOSCIENCE PTY LTD, priority 2011, dated 2024)
Entries after “also recorded” stand apart in the source; their conditions may differ.

Key:
monocytes = conditions: Yokochi (2001); cited from earlier work
MCP-1 = conditions: Yokochi (2001); Yamada (2004); cited from earlier work
[1] = test system: mouse models of multiple sclerosis, renal ischemia-reperfusion injury, ureter obstruction, diabetic nephropathy; rat model of arthritis; conditions: Tesch (2008); cited from earlier work
AT1R-Rluc8 [2] = biological target: T1, AT1R-Rluc8 (Homo sapiens, UniProt P30556); format: cell-based; conditions: HEK293FT cells; antagonist 10 μM; 100 nM AngII; FIG. 5 middle
T1 construct: expressed in transfected cells; host or cells: HEK293FT
T1 sequence (P30556 1-359): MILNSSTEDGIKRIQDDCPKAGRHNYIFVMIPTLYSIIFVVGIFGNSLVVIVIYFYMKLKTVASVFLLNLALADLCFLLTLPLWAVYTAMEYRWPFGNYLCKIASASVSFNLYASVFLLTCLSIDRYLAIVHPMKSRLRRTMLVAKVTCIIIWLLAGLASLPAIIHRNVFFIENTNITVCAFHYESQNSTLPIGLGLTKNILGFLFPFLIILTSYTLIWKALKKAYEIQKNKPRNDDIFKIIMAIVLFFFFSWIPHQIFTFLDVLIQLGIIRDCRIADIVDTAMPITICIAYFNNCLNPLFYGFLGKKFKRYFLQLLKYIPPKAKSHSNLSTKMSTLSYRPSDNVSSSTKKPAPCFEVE

[3] = biological target: T2, AT1R-Rluc8 and the untagged CCR2 (Homo sapiens, UniProt P30556+P41597); format: cell-based; conditions: HEK293FT cells, FIG. 5 bottom; for MCP-1-induced BRET, AT1R-Rluc8, β-arrestin2-Venus and untagged CCR2: 100 nM MCP-1
T2 construct: expressed in transfected cells; host or cells: HEK293FT
T2 sequence (P41597 whole entry, one chain of several): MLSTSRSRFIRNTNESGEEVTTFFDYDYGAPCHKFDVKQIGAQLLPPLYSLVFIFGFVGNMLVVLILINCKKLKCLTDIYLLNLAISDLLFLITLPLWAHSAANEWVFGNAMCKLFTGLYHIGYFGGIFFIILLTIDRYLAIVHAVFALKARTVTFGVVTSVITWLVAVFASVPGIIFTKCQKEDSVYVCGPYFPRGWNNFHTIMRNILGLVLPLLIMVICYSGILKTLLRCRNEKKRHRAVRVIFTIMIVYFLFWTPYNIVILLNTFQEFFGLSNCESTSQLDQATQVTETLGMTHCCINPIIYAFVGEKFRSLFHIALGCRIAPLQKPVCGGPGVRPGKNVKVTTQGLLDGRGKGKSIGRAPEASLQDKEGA
Description: (§3) Data represent mean±SEM of three independent experiments performed in triplicate.
HEK293FT cells were transiently transfected with plasmids coding for β-arrestin2-Venus and the indicated receptors: CCR2-Rluc8 (top panel), AT1R-Rluc8 (middle panel) or AT1R-Rluc8 and the untagged CCR2 (bottom panel).

AT1R-Rluc8 [4] = biological target: T1, AT1R-Rluc8; test: Inositol phosphate (IP1) production (Example 4, top panel); format: cell-based; conditions: HEK293FT cells; antagonist 10 μM; 100 nM AngII; no CCR2; FIG. 6 top
AT1R-Rluc8 and CCR2 [5] = biological target: T3, AT1R-Rluc8 and CCR2 (Homo sapiens, UniProt P30556+P41597); test: Inositol phosphate (IP1) production (Example 4, bottom panel); format: cell-based; conditions: HEK293FT cells, FIG. 6 bottom; for AngII-induced IP1 production, cells co-expressing AT1R-Rluc8 and CCR2 / MCP-1-induced IP1 production, cells co-expressing AT1R-Rluc8 and CCR2: antagonist 10 μM; for AngII-induced IP1 production, cells co-expressing AT1R-Rluc8 and CCR2: 100 nM AngII; for MCP-1-induced IP1 production, cells co-expressing AT1R-Rluc8 and CCR2: 100 nM MCP-1
T3 construct: expressed in transfected cells; host or cells: HEK293FT
T3 sequence (P41597 whole entry, one chain of several): as above
Description: as §3

[6] = biological target: CCR2-Rluc8 and HA-tagged AT1R (Homo sapiens, UniProt P30556+P41597); conditions: HEK293FT cells, FIG. 7 bottom; for MCP-1-induced BRET, CCR2-Rluc8, β-arrestin2-Venus and HA-tagged AT1R: 100 nM MCP-1
Sequence of CCR2-Rluc8 and HA-tagged AT1R (P41597 whole entry, one chain of several): as above

AT1R-Rluc8 [7] = biological target: T1, AT1R-Rluc8; test: Inositol phosphate (IP1) production (Example 6, top panel); format: cell-based; conditions: HEK293FT cells; antagonist 10 μM; 100 nM AngII; no CCR2; FIG. 8 top
Description: (§1) Data are shown as induced IP1 (arbitrary units).
(§2) The cells were then lysed by adding the HTRF® assay reagents, the Terbium Cryptate-labeled anti-IP1 antibody, and the d2-labeled IP1 analog, previously diluted in the lysis buffer containing 1% Triton X-100. The assay was incubated for 1 hour at room temperature, and Terbium Cryptate fluorescence and the time resolved FRET signal were measured 50 μs after excitation at 340, 620, and 665 nm, respectively, using the EnVision 2102 multilabel plate reader (PerkinElmer). Data are shown as induced IP1 (arbitrary units). The IP-One Tb kit is a competition assay and so induction of IP1 results in a decrease in absolute assay signal. Therefore, the induced IP1 (arbitrary units) is generated by subtracting the ligand-induced assay signal from the basal assay signal.

AT1R-Rluc8 and CCR2 [8] = biological target: T3, AT1R-Rluc8 and CCR2; test: Inositol phosphate (IP1) production (Example 6, bottom panel); format: cell-based; conditions: HEK293FT cells, FIG. 8 bottom
Description: as §1, §2

diabetic nephropathy = conditions: patients; Lewis (1993); cited from earlier work

| Compound | inflammation in mouse models of multiple sclerosis, renal ischemia-reperfusion injury, ureter obstruction, diabetic nephropathy and a rat model of arthritis [1] | AngII-induced BRET response, AT1R-Rluc8 and β-arrestin2-Venus (AT1R-Rluc8 [2]) | MCP-1-induced BRET, AT1R-Rluc8, β-arrestin2-Venus and untagged CCR2 ([3]; antagonist 10 μM) | AngII-induced IP1 production, cells expressing AT1R-Rluc8 (AT1R-Rluc8 [4]) | AngII-induced IP1 production, cells co-expressing AT1R-Rluc8 and CCR2 (AT1R-Rluc8 and CCR2 [5]) | MCP-1-induced IP1 production, cells co-expressing AT1R-Rluc8 and CCR2 (AT1R-Rluc8 and CCR2 [5]) | MCP-1-induced BRET, CCR2-Rluc8, β-arrestin2-Venus and HA-tagged AT1R ([6]; antagonist 10 μM) | also measured |
| --- | --- | --- | --- | --- | --- | --- | --- | --- |
| 3-oxygermylpropionic acid polymer [Propagermanium] | suppress inflammation |  |  |  |  |  |  | in vitro chemotactic migration of monocytes by MCP-1 (monocytes): specifically inhibit; also recorded: inhibits; MCP-1 binding (MCP-1): does not inhibit |
| CCO[C@H]1CN(C2CCC(O)(c3ccc4c(c3)OCO4)CC2)C[C@@H]1NC(=O)CNC(=O)c1cccc(C(F)(F)F)c1 (stereo partly drawn) [INCB3344] | suppress inflammation |  |  |  |  |  |  |  |
| CCCCC1=NC2(CCCC2)C(=O)N1Cc1ccc(-c2ccccc2-c2nn[nH]n2)cc1 [Irbesartan, 2-butyl-3-({4-[2-(2H-1,2,3,4-tetrazol-5-yl)phenyl]phenyl}methyl)-1,3-diazaspiro[4.4]non-1-en-4-one] |  | substantially blocked | not the MCP-1-induced BRET | substantially abolished | substantially inhibiting | partially reduced | not the MCP-1-promoted BRET signal | AngII-induced BRET, AT1R-Rluc8, β-arrestin2-Venus and untagged CCR2 ([3]; antagonist 10 μM, 100 nM AngII): substantially block; AngII-induced BRET, CCR2-Rluc8, β-arrestin2-Venus and HA-tagged AT1R ([6]; antagonist 10 μM, 100 nM AngII): partially blocked |
| Cc1ccc2c(c1)C1(CCN(CCc3nc(-c4ccccc4)oc3C)CC1)OC(=O)N2 [RS504393] | suppress inflammation | not RS504393 substantially blocked | partially blocked | not RS504393, substantially abolished | little effect | substantially and selectively inhibited | substantially inhibited | AngII-induced IP1 production, cells expressing AT1R-Rluc8 (AT1R-Rluc8 [7]): not RS504393, abolished; AngII-induced IP1 production, cells co-expressing AT1R-Rluc8 and CCR2 (AT1R-Rluc8 and CCR2 [8]; antagonist 10 μM, 100 nM AngII): little effect; MCP-1-induced IP1 response, cells co-expressing AT1R-Rluc8 and CCR2 (AT1R-Rluc8 and CCR2 [8]; antagonist 10 μM, 100 nM MCP-1): substantially and selectively inhibited; BRET response with combined treatment with MCP-1 and AngII, CCR2-Rluc8 and HA-tagged AT1R ([6]; antagonist(s) 10 μM, 100 nM MCP-1 and AngII): a substantial BRET signal remained |
| C[C@H](CS)C(=O)N1CCC[C@H]1C(=O)O [captopril] |  |  |  |  |  |  |  | progression of diabetic nephropathy (diabetic nephropathy): did not halt the progression of diabetic nephropathy in the vast majority of patients |
| MCP-1: Monocyte chemotactic protein-1, also known as monocyte chemoattractant protein-1 |  |  |  |  |  |  |  | agonist-induced BRET, AT1R-Rluc8, β-arrestin2-Venus and untagged CCR2 ([3]; 100 nM agonist): induced BRET increases to different degrees; agonist-stimulated IP1 response, cells co-expressing AT1R-Rluc8 and CCR2 (AT1R-Rluc8 and CCR2 [5]; 100 nM agonist): seems to stimulate a partial IP1 response; agonist-stimulated IP1 response, cells co-expressing AT1R-Rluc8 and CCR2 (AT1R-Rluc8 and CCR2 [8]; 100 nM agonist): seems to stimulate a partial IP1 response |
